In patent US10752624B2, “Kinase inhibitors” (Origenis GmbH, priority 2012, dated 2020):

How the values were obtained:
SYK kinase = target: T1, SYK kinase (Homo sapiens, UniProt P43405); test: SYK Assay (OMNIA Kinase Assay, SOX peptide fluorescence); format: biochemical; details: 1 mM ATP, 10 μM Omnia Peptide Substrate Tyr 7, 30° C., readings for 30 minutes; read-out: SYK Activities: IC50
T1 construct: purchased Invitrogen, Carlsbad
Outline: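 The reaction was run at 30 °C with 1 mM ATP, 0.2 mM DTT and 10 μM Omnia Tyr 7 peptide (final) and started by adding SYK. Chelation-enhanced SOX fluorescence (ex 360/em 485 nm) was read every 30 s for 30 min. Reaction velocity versus inhibitor concentration was fitted sigmoidally for IC50.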

LRRK2 = LRRK2 (Homo sapiens, UniProt Q5S007); test: LRRK2-LRRK2 G2019S-Assay (LanthaScreen Eu Kinase Binding Assay); details: 5 nM LRRK2, 10 nM tracer 236, 2 nM EU-Anti-GST antibody, 1 h at RT; read-out: LRRK2 Activities: IC50
Chain of LRRK2 (Q5S007 970-2527 limits assumed): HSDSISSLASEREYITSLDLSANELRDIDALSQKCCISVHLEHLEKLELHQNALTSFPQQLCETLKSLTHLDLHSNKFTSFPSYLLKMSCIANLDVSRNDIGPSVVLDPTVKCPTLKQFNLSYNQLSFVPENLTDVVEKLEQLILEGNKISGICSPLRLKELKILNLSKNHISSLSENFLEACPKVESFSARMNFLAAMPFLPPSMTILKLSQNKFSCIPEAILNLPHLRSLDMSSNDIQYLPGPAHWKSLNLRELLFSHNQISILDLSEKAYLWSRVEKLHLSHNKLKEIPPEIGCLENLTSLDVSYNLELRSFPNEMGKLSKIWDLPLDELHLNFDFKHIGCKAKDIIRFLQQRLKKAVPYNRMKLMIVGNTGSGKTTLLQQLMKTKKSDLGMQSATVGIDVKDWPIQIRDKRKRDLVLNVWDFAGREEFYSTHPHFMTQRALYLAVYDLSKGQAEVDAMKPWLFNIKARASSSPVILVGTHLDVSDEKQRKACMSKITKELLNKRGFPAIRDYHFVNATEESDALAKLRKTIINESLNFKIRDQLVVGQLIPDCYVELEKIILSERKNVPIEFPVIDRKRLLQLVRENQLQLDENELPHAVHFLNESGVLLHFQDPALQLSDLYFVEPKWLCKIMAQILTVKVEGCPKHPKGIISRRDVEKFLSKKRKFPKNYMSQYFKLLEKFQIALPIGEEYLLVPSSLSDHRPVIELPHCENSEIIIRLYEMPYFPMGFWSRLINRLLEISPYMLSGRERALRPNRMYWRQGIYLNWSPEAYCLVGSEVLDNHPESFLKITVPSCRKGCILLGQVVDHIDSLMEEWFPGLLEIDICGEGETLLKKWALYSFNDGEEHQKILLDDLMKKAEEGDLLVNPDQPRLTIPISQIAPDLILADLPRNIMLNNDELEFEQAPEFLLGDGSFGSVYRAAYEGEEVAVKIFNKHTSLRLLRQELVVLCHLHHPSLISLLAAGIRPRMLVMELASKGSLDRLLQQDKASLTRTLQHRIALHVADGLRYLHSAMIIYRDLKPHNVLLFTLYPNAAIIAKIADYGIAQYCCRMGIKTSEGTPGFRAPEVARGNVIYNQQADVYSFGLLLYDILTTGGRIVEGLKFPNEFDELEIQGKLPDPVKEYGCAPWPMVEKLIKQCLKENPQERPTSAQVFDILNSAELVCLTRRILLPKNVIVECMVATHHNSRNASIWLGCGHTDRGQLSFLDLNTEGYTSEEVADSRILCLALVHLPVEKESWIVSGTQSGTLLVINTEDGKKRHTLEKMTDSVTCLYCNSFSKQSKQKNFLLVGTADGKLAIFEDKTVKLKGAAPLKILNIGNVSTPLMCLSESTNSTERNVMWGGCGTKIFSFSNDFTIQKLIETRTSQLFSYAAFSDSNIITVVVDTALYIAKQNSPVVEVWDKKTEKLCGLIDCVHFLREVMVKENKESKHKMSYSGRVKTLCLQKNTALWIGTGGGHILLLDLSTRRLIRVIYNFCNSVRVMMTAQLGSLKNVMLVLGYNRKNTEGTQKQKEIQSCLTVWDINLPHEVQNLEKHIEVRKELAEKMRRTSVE
Outline: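 In a TR-FRET tracer displacement assay, LRRK2 or its mutants at 5 nM were mixed with 2 nM Eu-anti-GST antibody and 10 nM tracer 236 in kinase buffer A for 1 h at RT. The 665/615 nm emission ratio was plotted against inhibitor concentration, and IC50 came from a variable-slope sigmoidal fit.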

IC50 (SYK kinase) | IC50 (LRRK2) | SMILES
100 to 1000 nM | 10 to 100 nM | COc1c(Nc2nc3ccc(S(C)(=O)=O)cc3c3cn[nH]c23)cnn1C1CCN(C(C)(C)C)CC1 [Example 229, N-(1-(1-(tert-butyl)piperidin-4-yl)-5-methoxy-1H-pyrazol-4-yl)-8-(methylsulfonyl)-3H-pyrazolo[3,4-c]quinolin-4-amine]
100 to 1000 nM | 10 to 100 nM | COc1ccc2nc(Nc3cnn(C(C)C(C)C)c3)c3n[nH]cc3c2c1 (centres unmarked) [Example 321, 8-methoxy-N-(1-(3-methylbutan-2-yl)-1H-pyrazol-4-yl)-2H-pyrazolo[3,4-c]quinolin-4-amine]
10 to 100 nM | 10 to 100 nM | CS(=O)(=O)c1ccc2c(c1)nc(Nc1cnn(C3CC3)c1)c1[nH]ncc12 [Example 197, N-(1-cyclopropyl-1H-pyrazol-4-yl)-7-(methylsulfonyl)-3H-pyrazolo[3,4-c]quinolin-4-amine]
100 to 1000 nM | 100 to 1000 nM | COc1ccc2nc(Nc3ccc(N4CCC(N5CCOCC5)CC4)cc3)c3n[nH]cc3c2c1 [Example 86, 8-methoxy-N-(4-(4-morpholinopiperidin-1-yl)phenyl)-2H-pyrazolo[3,4-c]quinolin-4-amine]
100 to 1000 nM | 10 to 100 nM | CC(C)(C)n1cc(Nc2nc3cc(S(C)(=O)=O)ccc3c3cn[nH]c23)cn1 [Example 188, N-(1-(tert-butyl)-1H-pyrazol-4-yl)-7-(methylsulfonyl)-3H-pyrazolo[3,4-c]quinolin-4-amine]
10 to 100 nM | 10 to 100 nM | CC(C(=O)O)n1cc(Nc2nc3ccc(S(C)(=O)=O)cc3c3c[nH]nc23)cn1 (centres unmarked) [Example 334, 2-(4-((8-(methylsulfonyl)-2H-pyrazolo[3,4-c]quinolin-4-yl)amino)-1H-pyrazol-1-yl)propanoic acid]
100 to 1000 nM | < 10 nM | C=C(C)Cn1cc(Nc2nc3cccc(OC)c3c3cn[nH]c23)cn1 [Example 258, 9-methoxy-N-(1-(2-methylallyl)-1H-pyrazol-4-yl)-3H-pyrazolo[3,4-c]quinolin-4-amine]
10 to 100 nM | 10 to 100 nM | COc1ccc(Nc2nc3ccc(S(C)(=O)=O)cc3c3c[nH]nc23)cc1NC(C)=O [Example 332, N-(2-methoxy-5-((8-(methylsulfonyl)-2H-pyrazolo[3,4-c]quinolin-4-yl)amino)phenyl)acetamide]
10 to 100 nM | < 10 nM | CC(C)(C)n1cc(Nc2nc3ccc(S(C)(=O)=O)cc3c3cn[nH]c23)cn1 [Example 195, N-(1-(tert-butyl)-1H-pyrazol-4-yl)-8-(methylsulfonyl)-3H-pyrazolo[3,4-c]quinolin-4-amine]
100 to 1000 nM | 10 to 100 nM | Cc1ccc2nc(Nc3ccc(N4CCOCC4)cc3)c3[nH]ncc3c2c1 [Example 74, 8-methyl-N-(4-morpholinophenyl)-3H-pyrazolo[3,4-c]quinolin-4-amine]
